Measurements reported in ChEMBL document CHEMBL3301361, “Experimental in vitro DMPK and physicochemical data on a set of publicly disclosed compounds”.
≈ marks a conversion by molar mass, not a printed value.

Columns and labels:
physchem [1] = assay: physchem
physchem [2] = settings: octan-1-ol/water
in vitro [3] = settings: SD, HW or BN, rat, plasma
in vitro [4] = settings: human
in vitro [5] = settings: human, plasma
in vitro [6] = settings: human, hepatocytes
physchem [7] = settings: pH 7.4 buffer
in vitro [8] = settings: hepatocytes

Compound | pKa (physchem [1]) | logD (physchem [2]; pH 7.4, LogD7.4) | also measured
Cc1nc2n(c(=O)c1CCN1CCC(c3noc4cc(F)ccc34)CC1)CCCC2 [RISPERIDONE] | 8.49 |  | logD (physchem [2]; pH 7.4): 2.05; fraction unbound at 5 h (in vitro [3]): 0.0544
C[C@H](CO)Nc1nc(SCc2cccc(F)c2F)nc2nc(N)cnc12 | 4.2 | 2.89 | microsomal CLint (in vitro [4]; liver microsomes): 12 µL/min/mg; fraction unbound at 5 h (in vitro [5]; PPB): 0.0447
Cc1ccnc(NCc2ccccc2O)c1 | 6.8 | 3.35 | 
Nc1nc2ccccc2[nH]1 | 7.2 |  | microsomal CLint (in vitro [4]; liver microsomes): < 3 µL/min/mg
O=C(NCC12CC3CC(CC(C3)C1)C2)c1cc(CC2CCNCC2)ccc1Cl | 10.1 | 1.49 | fraction unbound at 5 h (in vitro [5]; PPB): 0.0872
CN(C)CCC=C1c2ccccc2COc2ccccc21 [DOXEPIN] | 8.5 | 2.15 | 
NC1=NC(c2ccco2)Nc2c(F)ccc(F)c21 (centres undefined) | 8.2 | 1.2 | 
NC1=Nc2ccccc2Sc2cccc(F)c21 | 6.5 |  | hepatocyte CLint (in vitro [6]): 13.2 µL/min/1e6 cells; fraction unbound at 5 h (in vitro [5]; PPB): 0.0568
Cc1nc2c(OCc3ccccc3)cccn2c1CC#N | 5.6 |  | 
CON(C)C(=O)c1c(Cn2c(C)nc(Cl)c2Cl)sc2c1c(=O)n(C)c(=O)n2CC(C)C | 2.7 | 2.23 | solubility thermodynamic (physchem [7]): 513 µM (≈ 250 µg/mL)
CCN(CC)C(C)C(=O)c1ccccc1 (centres undefined) [DIETHYLPROPION] | 8.8 |  | logD (physchem [2]; pH 7.4): 1.18
c1ccc2c(CC3=NCCN3)cccc2c1 [NAPHAZOLINE] | 10.3 |  | 
Cc1cc(N)nc(CCNC(=O)c2ccc(C#N)cc2)c1 | 7.1 | 1.62 | solubility thermodynamic (physchem [7]): 64.6 µM (≈ 18.1 µg/mL)
N#Cc1ccc(C(=O)N2CCC3(CC2)N=C(N)c2c(F)ccc(F)c2N3)cn1 | 8.4 | 0.79 | fraction unbound at 5 h (in vitro [5]; PPB): 0.134
CCOC(=O)N1CCC(Nc2ccccn2)CC1 | 6.6 |  | 
O=C(O)COc1ccc(Cl)cc1CN1CCC(S(=O)(=O)c2ccccc2)CC1 | 7.8 | 0.48 | 
CC(C)c1nc2ccc(-c3ccc(F)cc3)cc2c(=O)n1C[C@H]1CCCN(C(C)C)C1 | 9.91 | 3.6 | microsomal CLint (in vitro [4]; microsomes): 12.9 µL/min/mg; solubility thermodynamic (physchem [7]): 537 µM (≈ 226 µg/mL); hepatocyte CLint (in vitro [8]): 29.5 µL/min/1e6 cells
O=C(O)COc1ccc(C(F)(F)F)cc1CN1CCN(C(=O)c2ccccc2)CC1 | 6.9 |  | microsomal CLint (in vitro [4]; liver microsomes): 4.7 µL/min/mg; hepatocyte CLint (in vitro [8]): < 3 µL/min/1e6 cells
Cc1cc(C(C)(C)C)cc(C)c1CC1=NCCN1 [XYLOMETAZOLINE] | 10.6 |  | 
c1ccc(CSc2nc3ccccc3[nH]2)cc1 | 4.2 |  | 
CNCC[C@@H](Oc1cc(OC)ccc1C#N)c1ccccc1 | 10.2 | 0.87 | microsomal CLint (in vitro [4]; liver microsomes): 26 µL/min/mg; hepatocyte CLint (in vitro [8]): 142 µL/min/1e6 cells

Compound | pKa (physchem [1]) | logD (physchem [2]; pH 7.4, LogD7.4) | also measured
Cc1ncc[nH]1 | 7.8 |  | 
CCc1cc(C(N)=S)ccn1 [ETHIONAMIDE] | 4.4 | 1.52 | fraction unbound at 5 h (in vitro [3]): 0.54
Cn1c([S+]([O-])Cc2ccccn2)nc2ccccc21 (centres undefined) | 2.6 |  | 
C=CCOc1ccccc1OCC(O)CNC(C)C (centres undefined) [OXPRENOLOL] | 9.69 | 0.2 | 
Cc1ccnc(N)c1N | 7.2 |  | 
CC(C)(C)c1ccc(C(O)CCCN2CCC(C(O)(c3ccccc3)c3ccccc3)CC2)cc1 (centres undefined) [TERFENADINE] | 8.8 | 3.99 | solubility thermodynamic (physchem [7]): 5.4 µM (≈ 2.55 µg/mL); fraction unbound at 5 h (in vitro [5]; PPB): 0.0084
NC1=NC(c2ccccc2)Nc2ccccc21 (centres undefined) | 9.83 |  | 
Cc1ccc(C#N)c(S[C@H](CCN)c2ccccc2)n1 | 9.8 |  | 
O=S(=O)(c1ccccc1)N1CCN(Cc2ccccc2)CC1 | 5.6 |  | microsomal CLint (in vitro [4]; liver microsomes): 64 µL/min/mg; hepatocyte CLint (in vitro [8]): > 150 µL/min/1e6 cells
CNCC[C@@H](Oc1cc(C(F)(F)F)ccc1C#N)c1ccccc1 | 10.4 | 1.3 | microsomal CLint (in vitro [4]; microsomes): < 3 µL/min/mg
CN(C(=O)Cc1ccc(S(=O)(=O)N(C)C)cc1)C1CCN(CCC(c2ccccc2)c2ccccc2)CC1 | 8.1 |  | 
Cc1ncc([N+](=O)[O-])n1CCO [METRONIDAZOLE] | 2.51 | -0.11 | 
CCN(CC)CCNC(=O)c1ccc(NC(C)=O)cc1 [ACECAINIDE] | 9.14 |  | 
NC1=NC(c2ccc(F)cc2)Nc2cccc(F)c21 (centres undefined) | 9 |  | 
O=C(CCCN1CCC(O)(c2ccc(Cl)cc2)CC1)c1ccc(F)cc1 [HALOPERIDOL] | 8.75 | 2.67 | solubility thermodynamic (physchem [7]): 50.1 µM (≈ 18.8 µg/mL); fraction unbound at 5 h (in vitro [3]): 0.186
NC1=NC(C2CC2)Cc2ccsc21 (centres undefined) | > 11 |  | 
N#Cc1ccc(C(=O)N2CCC3(CC2)N=C(N)c2c(F)cccc2N3)cc1 | 9 | 0.66 | 
CCCCc1nc2c(N)nc3ccccc3c2n1CC(C)C | 7.3 | 3.82 | microsomal CLint (in vitro [4]; liver microsomes): < 3 µL/min/mg; fraction unbound at 5 h (in vitro [5]; PPB): 0.062; fraction unbound at 5 h (in vitro [3]): 0.0307
COc1ccc(C2(c3cccc(-c4cncnc4)c3)N=C(C)C(N)=N2)cc1C (centres undefined) | 5.83 |  | fraction unbound at 5 h (in vitro [5]; PPB): 0.062; fraction unbound at 5 h (in vitro [3]): 0.271
CCOC(=O)N1CCC2(CC1)N=C(N)c1c(F)cccc1N2 | 9.1 |  | 
CCC(CCNC)Oc1cc(Cl)ccc1C#N (centres undefined) | 10.1 | 0.38 | microsomal CLint (in vitro [4]; liver microsomes): < 3 µL/min/mg

Compound | pKa (physchem [1]) | logD (physchem [2]; pH 7.4, LogD7.4) | also measured
COc1cccc(C(=O)NCCN2CCC(Oc3ccc(Cl)c(Cl)c3)CC2)c1 | 7.4 |  | microsomal CLint (in vitro [4]; liver microsomes): 9 µL/min/mg; solubility thermodynamic (physchem [7]): 9.5 µM (≈ 4.02 µg/mL); fraction unbound at 5 h (in vitro [5]; PPB): 0.0008
CN(C)CCn1cnc2c1c(=O)n(C)c(=O)n2C [DIMETHAZAN] | 7.5 |  | 
CCOCc1nc2c(N)nc3ccccc3c2n1CC(C)(C)O [RESIQUIMOD] | 7.1 | 1.69 | solubility thermodynamic (physchem [7]): 417 µM (≈ 131 µg/mL); fraction unbound at 5 h (in vitro [3]): 0.574
NC1=Nc2ccccc2Sc2ccccc21 | 7.2 |  | hepatocyte CLint (in vitro [6]): 7.94 µL/min/1e6 cells
COc1ccnc(NC2CCN(C(=O)c3ccc(Cl)cc3)CC2)c1 | 7.2 | 2.82 | 
NC1=Nc2cccc3cccc(c23)N1 | 7.6 |  | 
C[C@H]1CN=C(N)c2sccc2O1 | 11 |  | microsomal CLint (in vitro [4]; microsomes): 7 µL/min/mg
CC(=O)Nc1ccc(CNc2[nH]nc3ccnc(Oc4ccccc4)c23)cc1 | 3.2 | 3.03 | microsomal CLint (in vitro [4]; liver microsomes): 12 µL/min/mg
COc1ccc2c3c1O[C@H]1C[C@@H](O)C=C[C@@]31CCN(C)C2 [GALANTAMINE] | 8.21 |  | 
NC1=NC(C2CC2)Cc2ccccc21 (centres undefined) | > 11 |  | 
O=C(NCC12CC3CC(CC(C3)C1)C2)c1ccnc(N2CCNCC2)c1Cl | 8.7 |  | microsomal CLint (in vitro [4]; liver microsomes): 73 µL/min/mg; hepatocyte CLint (in vitro [8]): 7.2 µL/min/1e6 cells
Nc1ccc(OCC(=O)O)c(-c2ccccc2)c1 | 5.1 |  | microsomal CLint (in vitro [4]; liver microsomes): < 3 µL/min/mg
COc1ccnc(NC2CCN(C(=O)c3ccccc3)CC2)c1 | 6.85 | 2.06 | microsomal CLint (in vitro [4]; liver microsomes): < 3 µL/min/mg
Cc1ccnc(NCc2c(O)ccc3ccccc23)c1 | 6.6 |  | 
CC(C)(C)NC(=O)[C@@H]1C[C@@H]2CCCC[C@@H]2CN1C[C@@H](O)[C@H](Cc1ccccc1)NC(=O)[C@H](CC(N)=O)NC(=O)c1ccc2ccccc2n1 | 7.14 |  | solubility thermodynamic (physchem [7]): 36.3 µM (≈ 24.4 µg/mL); fraction unbound at 5 h (in vitro [5]; PPB): 0.0114; fraction unbound at 5 h (in vitro [3]): 0.0048
NC1=NC(c2cccs2)Nc2cccc(F)c21 (centres undefined) | 8.73 | 0.91 | 
NCC(Oc1cc(Cl)ccc1Cl)c1ccccc1 (centres undefined) | 8.5 |  | 
CCOC(=O)N1CCC(Nc2cc(Cl)ccn2)CC1 | 5.3 |  | 
O=C(NCC12CC3CC(CC(C3)C1)C2)c1cc(OCCCNCCCO)ccc1Cl | 9.5 | 1.41 | microsomal CLint (in vitro [4]; liver microsomes): 27 µL/min/mg
COc1ccc(OC)c(CNc2[nH]nc3cccc(Oc4ccccc4)c23)c1 | 3.8 |  | microsomal CLint (in vitro [4]; liver microsomes): 11 µL/min/mg
CC12CC3CC(C)(C1)CC(N)(C3)C2 [MEMANTINE] | 10.7 | 0.06 | 

Compound | pKa (physchem [1]) | logD (physchem [2]; pH 7.4, LogD7.4) | also measured
CC(NC(C)(C)C)C(=O)c1cccc(Cl)c1 (centres undefined) [BUPROPION] | 8.4 |  | microsomal CLint (in vitro [4]; microsomes): 12 µL/min/mg; hepatocyte CLint (in vitro [8]): 72.4 µL/min/1e6 cells; fraction unbound at 5 h (in vitro [5]): 0.54; logD (physchem [2]; pH 7.4): 2.12
Cc1cc(C)nc(N)c1 | 7.7 | 0.85 | 
COc1ccccc1CNc1cc(C)ccn1 | 7.1 | 3.28 | 
Cc1nc2ccc(-c3ccc(Cl)cc3)cc2c(=O)n1C[C@H]1CCCN(C(C)C)C1 | 10.1 | 3.3 | microsomal CLint (in vitro [4]; microsomes): < 3 µL/min/mg; hepatocyte CLint (in vitro [8]): 3.8 µL/min/1e6 cells
Cc1ccnc(NCc2ccccc2)c1 | 7 | 3.08 | 
c1ccc(CSc2nc3ccccc3o2)nc1 | 4.3 |  | 
NC1=NC(c2ccco2)Nc2ccccc21 (centres undefined) | 9.13 |  | 
c1ccc(SCc2ccccn2)cc1 | 3.8 |  | 
c1ccc(CC2=NCCN2)cc1 [TOLAZOLINE] | 10.7 |  | 
N#Cc1ccc(C(=O)N2CCC3(CC2)N=C(N)c2c(F)ccc(F)c2N3)cc1 | 8.15 | 0.86 | fraction unbound at 5 h (in vitro [5]; PPB): 0.285
CCOC(=O)N1CCC2(CC1)N=C(N)c1sccc1N2 | 10.5 |  | 
CN1CCC(=C2c3ccccc3CC(=O)c3sccc32)CC1 [KETOTIFEN] | 9 |  | 
CCOC(=O)N1CCC(Nc2cc(OC)ccn2)CC1 | 7.2 |  | microsomal CLint (in vitro [4]; liver microsomes): 4 µL/min/mg
COc1ccc(OC)c(C(O)CNC(=O)CN)c1 (centres undefined) [MIDODRINE] | 7.59 |  | 
Cc1ccc(C(=O)N2CC3CNCC(C2)O3)cc1NC(=O)CC12CC3CC(CC(C3)C1)C2 | 7.18 | 2.12 | microsomal CLint (in vitro [4]; microsomes): 71.2 µL/min/mg; hepatocyte CLint (in vitro [8]): 16.2 µL/min/1e6 cells
COc1ccc(CNc2cc(C)ccn2)c(O)c1 | 6.8 |  | 
CNCC[C@@H](Oc1cc(Cl)ccc1C#N)c1ccccc1 | 9.9 |  | hepatocyte CLint (in vitro [8]): > 150 µL/min/1e6 cells
O=C(NCC12CC3CC(CC(C3)C1)C2)c1cc(OC2CCNCC2)ncc1Cl | 9.1 | 1.56 | 
N#Cc1ccc(Cl)cc1O[C@H](CCN)c1ccccc1 | 10.3 | 0.76 | microsomal CLint (in vitro [4]; liver microsomes): 4 µL/min/mg
O=C(CN1C2=NCCN2c2ccccc21)c1ccc(Cl)cc1 | 9.1 | 2.62 | microsomal CLint (in vitro [4]; microsomes): 4 µL/min/mg; fraction unbound at 5 h (in vitro [5]; PPB): 0.339
CCOC(=O)N1CCC2(CC1)N=C(N)c1c(Cl)cccc1N2 | 9 |  | 
